Patent US20050181516A1, “Bioequivalence determination using expression profiling” (priority 2002, published 2005)

Experiments:
[1] = tested on: psoriasis; experiment: 4 weeks clinical study of oral ASM981 in psoriatic patients; format: in vivo, human; conditions: 8 ASM981-treated patients, oral 60 mg/day (30 mg b.i.d.)
Procedure: A clinical study was initiated with a standardized oral formulation of ASM981 (pimecrolimus) to treat psoriatic patients. The purpose of this study was both to investigate the nature of the alteration in gene expression profiles caused by the administration of a standardised oral formulation of pimecrolimus and to produce the necessary data to allow the bioequivalence of other pharmaceutically equivalent oral formulations of pimecrolimus to be tested. The dose used was 60 mg/day, given as 30 mg twice a day (b.i.d.). To make this dose the […] tablets were cut in half using a special cutter (Tablettenteiler NR.96) so as to obtain 30 mg of ASM981 or a matched amount of placebo. ASM981 was evaluated as treatment for psoriasis using an oral dose of 60 mg (30 mg b.i.d) during a 4 weeks clinical study. The oral formulation used was a highly standardized oral dosage form that could be produced in large amounts and with a highly uniform composition, this was oral formulation A. The cohort included 10 patients; 8 received oral formulation A and 2 received a placebo. Blood samples were collected before the first administration to establish the gene expression baseline and on days 13 or 14 after treatment with ASM981 or placebo and submitted to gene expression analysis in order to gain insights into the mechanisms of action of the compound.

[2] = molecular target: macrophilin FKBP12 (Homo sapiens, UniProt P62942); conditions: relative to FK506; cited from earlier work
[3] = tested on: T cells and mast cells; conditions: in vitro; cited from earlier work

macrophilin FKBP12, sequence (P62942 whole entry): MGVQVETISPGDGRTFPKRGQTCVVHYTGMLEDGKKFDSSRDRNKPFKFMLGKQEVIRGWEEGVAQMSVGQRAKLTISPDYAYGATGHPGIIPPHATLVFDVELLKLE

CC[C@@H]1/C=C(\C)C[C@H](C)C[C@H](OC)[C@H]2O[C@@](O)(C(=O)C(=O)N3CCCC[C@H]3C(=O)O[C@H](/C(C)=C/[C@@H]3CC[C@H](Cl)[C@H](OC)C3)[C@H](C)[C@@H](O)CC1=O)[C@H](C)C[C@@H]2OC [ASM981, 33-Epichloro-33-desoxy-ascomycin]
psoriasis (clinical data) [1]: reduction of psoriasis
affinity for macrophilin FKBP12, fold lower than FK506 [2]: 3 fold
IgE promoter activity [3]: decrease
T cell activation and proliferation [3]: decrease
inflammatory mediators release [3]: impaired
